Source: ChEMBL document CHEMBL1914411, “Synthesis of lipophilic dimeric C-7/C-7-linked ciprofloxacin and C-6/C-6-linked levofloxacin derivatives. Versatile in vitro biological evaluations of monomeric and dimeric fluoroquinolone derivatives as potential antitumor, antibacterial or antimycobacterial agents” (Eur J Med Chem, 2011)
pIC50: −log10 of the molar value. ≈ marks a conversion by molar mass, not a printed value. Calls of active or inactive are those of the source. How the calls were made is not given here.

Key:
Pseudomonas aeruginosa = assay: Antimicrobial activity against Pseudomonas aeruginosa CIP 82.118 after 18 to 24 hrs by broth microdilution method; assay type: functional
[1] = Antiproliferative activity against human U373MG cells after 120 hrs by MTT asasy; assay type: functional, cell-based, U-373MG ATCC; details: U373 MG
[2] = system: Mycobacterium tuberculosis; assay: Antimycobacterial activity against Mycobacterium tuberculosis H37Rv assessed as growth inhibition at 10 uM after 6 days by MTT colorimetric microassay; assay type: functional; details: 144 h, read-out: GI
Escherichia coli = assay: Antimicrobial activity against Escherichia coli CIP 53126 after 18 to 24 hrs by broth microdilution method; assay type: functional
Staphylococcus aureus [3] = assay: Antimicrobial activity against Staphylococcus aureus CIP 4.83 after 18 to 24 hrs by broth microdilution method; assay type: functional
Enterococcus hirae = assay: Antimicrobial activity against Enterococcus hirae CIP 5855 after 18 to 24 hrs by broth microdilution method; assay type: functional
[4] = system: Mycobacterium tuberculosis; assay: Antimycobacterial activity against Mycobacterium tuberculosis H37Rv assessed as growth inhibition at 0.1 uM after 6 days by MTT colorimetric microassay; assay type: functional, organism-based
[5] = system: Mycobacterium tuberculosis; assay: Antimycobacterial activity against Mycobacterium tuberculosis H37Rv assessed as growth inhibition at 1 uM after 6 days by MTT colorimetric microassay; assay type: functional; details: 144 h, read-out: GI
[6] = system: Mycobacterium tuberculosis; assay: Antimycobacterial activity against Mycobacterium tuberculosis H37Rv after 6 days by MTT colorimetric microassay; assay type: functional, organism-based; details: 144 h
[7] = Solubility of compound in cell medium at 20 uM at 37 degC after 24 hrs; assay type: physicochemical
Staphylococcus aureus [8] = assay: Antimicrobial activity against methicillin-resistant Staphylococcus aureus ATCC 33592 after 18 to 24 hrs by broth microdilution method; assay type: functional
Staphylococcus aureus [9] = assay: Antimicrobial activity against multidrug-resistant Staphylococcus aureus isolate 1 after 18 to 24 hrs by broth microdilution method; assay type: functional
Staphylococcus aureus [10] = assay: Antimicrobial activity against methicillin-resistant Staphylococcus aureus ATCC 33591 after 18 to 24 hrs by broth microdilution method; assay type: functional
MCF7 = assay: Antiproliferative activity against human MCF7 cells after 120 hrs by MTT asasy; assay type: functional, cell-based; details: MCF7, 120 h
Staphylococcus aureus [11] = assay: Antimicrobial activity against multidrug-resistant Staphylococcus aureus isolate 2 after 18 to 24 hrs by broth microdilution method; assay type: functional
PC-3 = assay: Antiproliferative activity against human PC3 cells after 120 hrs by MTT asasy; assay type: functional, cell-based; details: PC-3, 120 h
A549 = assay: Antiproliferative activity against human A549 cells after 120 hrs by MTT asasy; assay type: functional, cell-based; details: A549, 120 h

SMILES | MBC (Pseudomonas aeruginosa) | MIC (Pseudomonas aeruginosa) | pIC50 [1] | inhibition of growth at 10 µM [2] | MBC (Escherichia coli) | MIC (Escherichia coli) | MBC (Staphylococcus aureus [3]) | MIC (Staphylococcus aureus [3]) | MBC (Enterococcus hirae) | MIC (Enterococcus hirae) | growth inhibition (GI) [4] | inhibition of growth at 1 µM [5] | pIC50 [6] | MIC [6] | other results
CCCCCCCCNC(=O)c1cn2c3c(c(N4CCN(C)CC4)c(F)cc3c1=O)OC[C@@H]2C | 250 µM (≈ 118 µg/mL) | 31.2 µM (≈ 14.7 µg/mL) | 5.64 | > 95% | 500 µM (≈ 236 µg/mL) | 125 µM (≈ 59.1 µg/mL) | 31.2 µM (≈ 14.7 µg/mL) | 31.2 µM (≈ 14.7 µg/mL) | 31.2 µM (≈ 14.7 µg/mL) | 31.2 µM (≈ 14.7 µg/mL) | inactive |  |  |  | 
CCCCCCCCCCCCCCCNC(=O)c1cn2c3c(c(N4CCN(C)CC4)c(F)cc3c1=O)OC[C@@H]2C | 250 µM (≈ 143 µg/mL) | 62.5 µM (≈ 35.7 µg/mL) |  | > 95% | 500 µM (≈ 285 µg/mL) | 125 µM (≈ 71.3 µg/mL) | 15.6 µM (≈ 8.9 µg/mL) | 15.6 µM (≈ 8.9 µg/mL) | 7.8 µM (≈ 4.45 µg/mL) | 7.8 µM (≈ 4.45 µg/mL) | inactive | 5% | 5.19 | 10 µM (≈ 5.71 µg/mL) | 
C[C@H]1COc2c(N3CCN(C)CC3)c(F)cc3c(=O)c(C(=O)NCCCCCCCCCCCCNC(=O)c4cn5c6c(c(N7CCN(C)CC7)c(F)cc6c4=O)OC[C@@H]5C)cn1c23 | 31.2 µM (≈ 27.7 µg/mL) | 31.2 µM (≈ 27.7 µg/mL) |  | 60% | ≤ 0.97 µM | ≤ 0.97 µM | 1.9 µM (≈ 1.69 µg/mL) | 1.9 µM (≈ 1.69 µg/mL) | 3.9 µM (≈ 3.46 µg/mL) | 3.9 µM (≈ 3.46 µg/mL) | inactive |  | 5.68 | 5 µM (≈ 4.44 µg/mL) | solubility [7]: Insoluble
O=C(O)c1cn(C2CC2)c2cc(N3CCN(C(=O)CCCCCCCCCCCCC(=O)N4CCN(c5cc6c(cc5F)c(=O)c(C(=O)O)cn6C5CC5)CC4)CC3)c(F)cc2c1=O | 250 µM (≈ 221 µg/mL) | 62.5 µM (≈ 55.3 µg/mL) | 5.30 |  | 500 µM (≈ 443 µg/mL) | 62.5 µM (≈ 55.3 µg/mL) | 1.9 µM (≈ 1.68 µg/mL) | ≤ 0.12 µM | 500 µM (≈ 443 µg/mL) | 125 µM (≈ 111 µg/mL) | inactive |  |  |  | MBC (Staphylococcus aureus [8]): 0.97 µM (≈ 0.858 µg/mL); MIC (Staphylococcus aureus [8]): 0.12 µM (≈ 0.106 µg/mL); MBC (Staphylococcus aureus [9]): 500 µM (≈ 443 µg/mL); MIC (Staphylococcus aureus [9]): 7.8 µM (≈ 6.9 µg/mL); MBC (Staphylococcus aureus [10]): 3.9 µM (≈ 3.45 µg/mL); MIC (Staphylococcus aureus [10]): 0.06 µM (≈ 0.0531 µg/mL); pIC50 (MCF7): 5.30; MBC (Staphylococcus aureus [11]): 15.6 µM (≈ 13.8 µg/mL); MIC (Staphylococcus aureus [11]): 7.8 µM (≈ 6.9 µg/mL)
CCCCCCCCCC(=O)N1CCN(c2cc3c(cc2F)c(=O)c(C(=O)O)cn3C2CC2)CC1 | 250 µM (≈ 121 µg/mL) | 125 µM (≈ 60.7 µg/mL) | 5.30 | > 95% | 500 µM (≈ 243 µg/mL) | 125 µM (≈ 60.7 µg/mL) | 62.5 µM (≈ 30.4 µg/mL) | 7.8 µM (≈ 3.79 µg/mL) | 15.6 µM (≈ 7.58 µg/mL) | 15.6 µM (≈ 7.58 µg/mL) | inactive | 20% |  |  | 
C[C@H]1COc2c(N3CCN(C)CC3)c(F)cc3c(=O)c(C(=O)NCCCCCCCCCCNC(=O)c4cn5c6c(c(N7CCN(C)CC7)c(F)cc6c4=O)OC[C@@H]5C)cn1c23 | 62.5 µM (≈ 53.7 µg/mL) | 31.2 µM (≈ 26.8 µg/mL) |  | 60% | ≤ 0.97 µM | ≤ 0.97 µM | 7.8 µM (≈ 6.7 µg/mL) | 7.8 µM (≈ 6.7 µg/mL) | 62.5 µM (≈ 53.7 µg/mL) | 31.2 µM (≈ 26.8 µg/mL) | inactive |  | 5.62 | 5 µM (≈ 4.3 µg/mL) | solubility [7]: Insoluble
CCCCCCCCCCCC(=O)OCOC(=O)c1cn2c3c(c(N4CCN(C)CC4)c(F)cc3c1=O)OC[C@@H]2C | 3.9 µM (≈ 2.24 µg/mL) | ≤ 0.97 µM | 6.70 | > 95% | 3.9 µM (≈ 2.24 µg/mL) | 3.9 µM (≈ 2.24 µg/mL) | ≤ 0.97 µM | ≤ 0.97 µM | 1.9 µM (≈ 1.09 µg/mL) | 1.9 µM (≈ 1.09 µg/mL) | inactive | 74% | 5.89 | 2.5 µM (≈ 1.43 µg/mL) | 
C[C@H]1COc2c(N3CCN(C)CC3)c(F)cc3c(=O)c(C(=O)O)cn1c23 [LEVOFLOXACIN] | ≤ 0.97 µM | ≤ 0.97 µM | 4.17 | 96% | ≤ 0.97 µM | ≤ 0.97 µM | ≤ 0.97 µM | ≤ 0.97 µM | 1.9 µM (≈ 0.687 µg/mL) | ≤ 0.97 µM | inactive | 85% | 6.10 | 2.5 µM (≈ 0.903 µg/mL) | pIC50 (MCF7): 4.17; pIC50 (PC-3): 4.17; pIC50 (A549): 4.17
